Assay [1] concerns the target T1, CCK-A (Rattus norvegicus, UniProt P30551).
T1 sequence (P30551 1-444): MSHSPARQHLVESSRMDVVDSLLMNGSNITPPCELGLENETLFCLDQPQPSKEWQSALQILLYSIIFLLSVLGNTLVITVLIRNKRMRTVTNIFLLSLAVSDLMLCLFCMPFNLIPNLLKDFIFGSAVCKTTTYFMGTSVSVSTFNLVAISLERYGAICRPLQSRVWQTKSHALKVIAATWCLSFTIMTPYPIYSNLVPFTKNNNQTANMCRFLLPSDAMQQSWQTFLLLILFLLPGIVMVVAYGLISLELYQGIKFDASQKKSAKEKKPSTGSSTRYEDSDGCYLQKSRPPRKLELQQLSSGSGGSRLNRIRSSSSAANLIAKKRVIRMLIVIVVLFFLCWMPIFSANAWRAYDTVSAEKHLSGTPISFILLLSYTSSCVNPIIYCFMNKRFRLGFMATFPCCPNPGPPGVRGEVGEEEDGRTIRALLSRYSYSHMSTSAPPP
Kind of assay: biochemical. The note with it: rat pancreas (CCK-A), 125I-CCK; read-out: CCK RECEPTOR BINDING RESULTS IC50 125I-CCK Pancreas. Type of assay: binding. The procedure: The CCK-A and CCK-B antagonising activity of the compounds described herein was evaluated using the assays described in published European patent application no. 0514133. The method essentially involves determining the concentration of the test compound required to displace 50% of the specific ^125 I-CCK from rat pancreas (CCK-A) or guinea pig brain (CCK-B).

For assay [2], the target named is T2, CCK-B (Cavia porcellus, UniProt H0VZC5).
T2 construct: guinea pig brain (CCK-B); from tissue; host or cells: guinea pig brain
T2 sequence (H0VZC5 1-426): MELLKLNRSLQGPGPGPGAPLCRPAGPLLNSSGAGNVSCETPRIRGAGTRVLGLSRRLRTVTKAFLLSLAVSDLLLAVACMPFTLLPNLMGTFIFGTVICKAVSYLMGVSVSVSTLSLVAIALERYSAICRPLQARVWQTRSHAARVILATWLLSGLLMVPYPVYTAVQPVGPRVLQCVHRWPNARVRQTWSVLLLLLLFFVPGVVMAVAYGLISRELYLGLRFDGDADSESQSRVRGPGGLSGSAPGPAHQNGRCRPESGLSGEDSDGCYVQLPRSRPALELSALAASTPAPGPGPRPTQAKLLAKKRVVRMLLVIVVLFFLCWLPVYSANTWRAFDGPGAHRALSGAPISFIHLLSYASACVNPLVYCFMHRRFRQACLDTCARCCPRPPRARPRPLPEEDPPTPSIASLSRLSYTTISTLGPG
Kind of assay: displacement of specific 125I-CCK from guinea pig brain (CCK-B receptor binding). The note with it: read-out: CCK RECEPTOR BINDING RESULTS IC50 125I-CCK Brain. The procedure:
The CCK-A and CCK-B antagonising activity of the compounds described herein was evaluated using the assays described in published European patent application no. 0514133. The method essentially involves determining the concentration of the test compound required to displace 50% of the specific ^125 I-CCK from rat pancreas (CCK-A) or guinea pig brain (CCK-B). The data in Table 1 were obtained for compounds of the Examples.

The source of these data is US5618812A, “Benzodiazepine derivatives” (Merck Sharp & Dohme, Ltd., priority 1992, dated 1997).

Structures can show the parent of a compound that is named as a salt.

Consider `CCCN1C(=O)C(NC(=O)Nc2cccc(C)c2)N=C(N(C)C2CCCCC2)c2ccccc21` (racemic) [Example 60, N-[3(R,S)-5-(N-Cyclohexyl-N-methylamino)-2,3-dihydro-2-oxo-1-propyl-1H-1,4-benzodiazepin-3-yl]-N'-[3-methylphenyl]urea], for which the IC50 (as a rule, the midpoint of a concentration-inhibition curve) in assay [1] came out at 186 nM; in assay [2] it was 2.56 nM.
For `Cc1cccc(NC(=O)NC2N=C(N(C)C3CCCCC3)c3ccccc3N(C)C2=O)c1` (racemic) [Example 63, N-[3(R,S)-5-(N-Cyclohexyl-N-methylamino)-2,3-dihydro-1-methyl-2-oxo-1H-1,4-benzodiazepin-3-yl]-N'-[3-methylphenyl]urea], the 50% inhibitory concentration (IC50) in assay [1] was determined as 304 nM; in assay [2] it was 1.36 nM.
As to `Cc1cccc(NC(=O)NC2N=C(N(C)C3CCCCCC3)c3ccccc3N(C)C2=O)c1` (racemic) [Example 66, N-[3(R,S)-5-(N-Cycloheptyl-N-methylamino)-2,3-dihydro-1-methyl-2-oxo-1H-1,4-benzodiazepin-3-yl]-N'-[3-methylphenyl]urea], the IC50 turned out to be 83.6 nM in assay [1] and 0.79 nM in assay [2].
The matching figures for `CN1C(=O)C(NC(=O)Nc2ccc3c(c2)CCC3)N=C(N(C)C2CCCCCC2)c2ccccc21` (racemic) [Example 69, N-[3(R,S)-5-(N-Cycloheptyl-N-methylamino)-2,3-dihydro-1-methyl-2-oxo-1H-1,4-benzodiazepin-3-yl]-N'-[5-indanyl]urea]: 469 nM and 2.82 nM.
For the compound `Cc1cccc(NC(=O)NC2N=C(N(C)Cc3ccccc3)c3ccccc3N(C)C2=O)c1` (racemic) [Example 72, N-[3(R,S)-5-(N-Benzyl-N-methylamino)-2,3-dihydro-1-methyl-2-oxo-1H-1,4-benzodiazepin-3-yl]-N'-[3-methylphenyl]urea], the IC50 amounted to 176 nM in assay [1] and 10.3 nM in assay [2].
Turning to `Cc1cccc(NC(=O)NC2N=C(N(C)C3CCN(C)CC3)c3ccccc3N(C)C2=O)c1` (racemic) [Example 73, N-[3(R,S)-5-(N-(4-N-Methylpiperidinyl)-N-methylamino)-2,3-dihydro-1-methyl-2-oxo-1H-1,4-benzodiazepin-3-yl]-N'-[3-methylphenyl]urea], the half-inhibitory concentration (IC50) in assay [1] was more than 3000 nM; in assay [2], 1410 nM.
The matching figures for `Cc1cccc(NC(=O)NC2N=C(N(C)CC3CCCCC3)c3ccccc3N(C)C2=O)c1` (racemic) [Example 74]: 192 nM and 7.3 nM.
The matching figures for `CCCN(CCC)C1=NC(NC(=O)Nc2cccc(C)c2)C(=O)N(C)c2ccccc21` (racemic) [Example 75, N-[3(R,S)-5-(N,N-Di-^npropylamino)-2,3-dihydro-1-methyl-2-oxo-1H-1,4-benzodiazepin-3-yl]-N-[3-methylphenyl]urea]: 314 nM and 46.9 nM.
Take `CCN(C1=NC(NC(=O)Nc2cccc(C)c2)C(=O)N(C)c2ccccc21)C1CCCC1` (racemic) [Example 76, N-[3(R,S)-5-(N-Cyclopentyl-N-ethylamino)-2,3-dihydro-1-methyl-2-oxo-1H-1,4-benzodiazepin-3-yl]-N'-[3-methylphenyl]urea]: the results for the IC50 in assay [1] and in assay [2] were 760 nM and 3.12 nM, respectively.
For `Cc1cccc(NC(=O)NC2N=C(N(C)C3CCC(C)(C)CC3)c3ccccc3N(C)C2=O)c1` (racemic) [Example 77, N-[3(R,S)-5-(N-(4,4-Dimethylcyclohexyl)-N-methylamino)-2,3-dihydro-1-methyl-2-oxo-1H-1,4-benzodiazepin-3-yl]-N'-[3-methylphenyl]urea], the half-inhibitory concentration (IC50) was determined as 135 nM in assay [1] and 81.1 nM in assay [2].
With `CCN(C1=NC(NC(=O)Nc2cccc(C)c2)C(=O)N(C)c2ccccc21)C1CCCCC1` (racemic) [Example 78, N-[3(R,S)-5-(N-Cyclohexyl-N-ethylamino)-2,3-dihydro-1-methyl-2-oxo-1H-1,4-benzodiazepin-3-yl]-N'-3-methylphenyl]urea], the IC50 in assay [1] came out at 891 nM; in assay [2], 4.5 nM.
As to `CCCN(C1=NC(NC(=O)Nc2cccc(C)c2)C(=O)N(C)c2ccccc21)C1CCCCC1` (racemic) [Example 79, N-[3(R,S)-5-(N-Cyclohexyl-N-propylamino)-2,3-dihydro-1-methyl-2-oxo-1H-benzodiazepin-3-yl]-N'-[3-methylphenyl]urea], the IC50 amounted to 1700 nM in assay [1] and 13.4 nM in assay [2].
The matching figures for `Cc1cccc(NC(=O)NC2N=C(N(Cc3ccccc3)C3CCCCC3)c3ccccc3N(C)C2=O)c1` (racemic) [Example 80, N-[3(R,S)-5-(N-Benzyl-N-cyclohexylamino)-2,3-dihydro-1-methyl-2-oxo-1H-1,4-benzodiazepin-3-yl]-N'-[3-methylphenyl]urea]: 1140 nM and 32.4 nM.
The matching figures for `Cc1cccc(NC(=O)NC2N=C(NC3CCCCC3)c3ccccc3N(C)C2=O)c1` (racemic) [Example 81, N-[3(R,S)-5(N-Cyclohexylamino)-2,3-dihydro-1-methyl-2-oxo-1H-1,4-benzodiazepin-3-yl]-N'-[3-methylphenyl]urea]: 14.9 nM and 23.2 nM.
The matching figures for `CN1C(=O)C(NC(=O)Nc2ccc3c(c2)CCC3)N=C(N(C)C2CCCCC2)c2ccccc21` (racemic) [Example 82, N-[3(R,S)-5-(N-Cyclohexyl-N-methylamino)-2,3-dihydro-1-methyl-2-oxo-1H-1,4-benzodiazepin-3-yl]-N'-[5-indanyl]urea]: 815 nM and 0.47 nM.
Consider `Cc1cccc(NC(=O)NC2N=C(N(C)C3CCCCCCC3)c3ccccc3N(C)C2=O)c1` (racemic) [Example 83, N-[3(R,S)-5-(N-Cyclooctyl-N-methylamino)-2,3-dihydro-1-methyl-2-oxo-1H-1,4-benzodiazepin-3-yl]-N'-[3-methylphenyl]urea], for which the half-inhibitory concentration (IC50) in assay [1] turned out to be 283 nM; in assay [2], 3.67 nM.
The matching figures for `Cc1cccc(NC(=O)NC2N=C(NCCN(C)C)c3ccccc3N(C)C2=O)c1` (racemic) [Example 84, N-[3(R,S)-2,3-Dihydro-5-(2-(N,N-dimethylamino)ethylamino)-1-methyl-2-oxo-1H-1,4-benzodiazepin-3-yl]-N'-[3-methylphenyl]urea dihydrochloride]: more than 3000 nM and 1900 nM.
The matching figures for `Cc1cccc(NC(=O)NC2N=C(N(C)CCN3CCOCC3)c3ccccc3N(C)C2=O)c1` (racemic) [Example 85, N-[3(R,S)-2,3-Dihydro-5-(N-(2-N-morpholinoethyl)-N-methylamino)-1-methyl-2-oxo-1H-1,4-benzodiazepin-3-yl]-N'-[3-methylphenyl]urea]: more than 3000 nM and 785 nM.
`Cc1cncc(NC(=O)NC2N=C(N(C)C3CCCCCC3)c3ccccc3N(C)C2=O)c1` (racemic) [Example 86, N-[3(R,S)-5-(N-Cycloheptyl)-N-methylamino)-2,3-dihydro-1-methyl-2-oxo-1H-1,4-benzodiazepin-3-yl]-N'-[3-(5-methylpyridine)]urea]: the values for the concentration for half-maximal inhibition (IC50) in assay [1] and in assay [2] were 831 nM and 31.3 nM, respectively.
For `CN1C(=O)C(NC(=O)c2cc3ccccc3[nH]2)N=C(N2CC3CCC(CC3)C2)c2ccccc21` (racemic) [Example 87, 3(R,S)-N-(5-(3-Azabicyclo[3,2,2]nonan-3-yl)-2,3-dihydro-1-methyl-2-oxo-1H-1,4-benzodiazepin-3-yl)-1H-indole-2-carboxamide], the IC50 in assay [1] came out at 0.87 nM; in assay [2], 509 nM.
`CC(C)CN1C(=O)C(NC(=O)c2cc3ccccc3[nH]2)N=C(N2CCCCCC2)c2ccccc21` (racemic) [Example 90, 3(R,S)-N-(2,3-Dihydro-5-(homopiperidin-1-yl)-1-(2-methylpropyl)-2-oxo-1H-1,4-benzodiazepin-3-yl)-1H-indole-2-carboxamide]: the values for the IC50 in assay [1] and in assay [2] were 8.7 nM and 225 nM, respectively.
Regarding `CC(C)CN1C(=O)C(NC(=O)Cc2c[nH]c3ccccc23)N=C(N2CCCCCC2)c2ccccc21` (racemic) [Example 94, 3(R,S)-N-(2,3-Dihydro-5-(homopiperidin-1-yl)-1-(2-methylpropyl)-2-oxo-1H-1,4-benzodiazepin-3-yl)-1H-indole-3-acetamide], the IC50 in assay [1] turned out to be 646 nM; in assay [2] it was 119 nM.
